From US6444681B1, “Methods and compositions for treating Raynaud's Phenomenon and scleroderma” (The Ohio State University Research Foundation, priority 2000, dated 2002)
pKd: −log10 of the molar value. Read-outs that look alike come from different tables or passages of the source.

Columns and labels:
[1] = biological target: T1, α-2B (Homo sapiens, UniProt P18089); conditions: cited from earlier work
T1 sequence (P18089 1-450): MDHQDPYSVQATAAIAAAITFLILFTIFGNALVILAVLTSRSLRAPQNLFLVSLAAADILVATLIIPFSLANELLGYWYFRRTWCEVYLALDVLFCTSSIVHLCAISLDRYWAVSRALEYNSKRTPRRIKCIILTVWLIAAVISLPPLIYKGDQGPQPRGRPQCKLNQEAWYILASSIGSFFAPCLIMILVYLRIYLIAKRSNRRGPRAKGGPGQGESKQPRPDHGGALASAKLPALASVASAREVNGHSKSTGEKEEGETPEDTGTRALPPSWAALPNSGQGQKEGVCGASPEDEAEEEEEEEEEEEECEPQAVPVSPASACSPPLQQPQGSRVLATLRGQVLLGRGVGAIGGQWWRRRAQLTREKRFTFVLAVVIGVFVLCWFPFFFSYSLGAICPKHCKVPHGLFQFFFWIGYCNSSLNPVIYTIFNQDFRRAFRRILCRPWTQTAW

[2] = tested on: small dermal arteries/arterioles from healthy controls and SSc subjects; assay: α2C-AR blockade of UK 14,304 vasoconstriction in human dermal arteries from control and SSc subjects; assay type: cell-based; conditions: for Kb: Homo sapiens, topical, versus UK 14,304, read-out: calculated dissociation constant, −log Kb (converted)
Method: Arterioles were dissected from the deep dermal plexus of the biopsies and any side branches tied. […] The arterioles were cannulated with glass micropipettes and placed in a microvessel chamber as previously describe. The arterioles were maintained in no-flow state at a constant transmural pressure (PTM)of 40 mmHg. The chamber was superfused with buffer solution (37° C., pH 7.4, gassed with 16% O2-5% CO2-balance N2) and placed on stage of an inverted microscope for continuous monitoring of internal diameter using a video camera and video dimension analyzer.
In order to determine the influence of α2C-AR blockade, paired arteries from each subject were used. […] In the other artery of each pair, increasing concentrations of the α2C-AR antagonist (MK 912) was administered before the response to UK 14,304 was determined.

[3] = biological target: T2, α-2C (Homo sapiens, UniProt P18825); conditions: cited from earlier work
T2 sequence (P18825 1-462): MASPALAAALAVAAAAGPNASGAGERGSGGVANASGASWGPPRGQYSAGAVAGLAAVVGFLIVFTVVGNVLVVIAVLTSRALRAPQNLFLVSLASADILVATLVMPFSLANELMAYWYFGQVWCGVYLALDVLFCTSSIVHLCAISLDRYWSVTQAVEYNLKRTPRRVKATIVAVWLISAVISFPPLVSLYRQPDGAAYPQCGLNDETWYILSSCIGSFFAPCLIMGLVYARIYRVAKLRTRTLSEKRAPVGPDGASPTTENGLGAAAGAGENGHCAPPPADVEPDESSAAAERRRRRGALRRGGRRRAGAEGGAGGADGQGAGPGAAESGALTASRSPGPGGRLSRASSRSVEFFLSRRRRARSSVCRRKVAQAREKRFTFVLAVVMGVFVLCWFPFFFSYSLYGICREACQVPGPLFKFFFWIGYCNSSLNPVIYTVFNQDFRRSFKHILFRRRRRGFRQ

[4] = biological target: Mouse Tail Artery; assay: Antagonism of UK 14,304-induced vasoconstriction in isolated pressurised distal mouse tail artery; assay type: cell-based
Source text: Male mice (C57BL6) were euthanized by CO2 asphyxiation. Proximal and/or distal segments of tail artery were then rapidly removed and placed in cold Krebs-Ringer bicarbonate solution (in mM): 118.3 NaCl, 4.7 KCl, 1.2 MgSO4, 1.2 KH2PO4, 2.5 CaCl2, 25.0 NaHCO3, 11. glucose (control solution). The small arteries were cannulated at both ends with glass micropipettes, secured using 12-0 nylon monofilament suture and placed in a microvascuiar chamber (Living Systems, Burlington, Vt.). The arteries were maintained at a constant transmural pressure of 60 mmHg in the absence of flow. The chamber was superfused with control solution and maintained at 37° C., pH 7.4, and gassed with 16% O2-5% CO2-balance N2. The chamber was placed on the stage of an inverted microscope (X20, Nikon TMS-F, Japan) connected to a video camera (Panasonic, CCTV camera, Japan). The vessel image was projected onto a video monitor and the internal diameter continuously determined by a video dimension analyzer (Living Systems Instrumentation, Burlington Vt.) and monitored using a BIOPAC (Santa Barbara, Calif.) data acquisition system (Gateway Dimensions Pentium Computer).
Small arteries were allowed to equilibrate for 30-40 min at a transmural pressure (PTM) of 60 mmHg before addition of α1 and α2-AR agonists and antagonists. Concentration-effect curves to the selective α1-AR agonist, phenylephrine, or the selective α2-AR agonist, UK 14,304 (brimonidine, 5-bromo-N-(4,5-dihydro-1H-imidazol-2-yl)-6-quinoxalinamine) were generated by increasing the concentration of the agonists in half-log increments, once the constriction to the previous concentration had stabilized. Following completion of the concentration-effect curve, the influence of the agonists was terminated by repeatedly exchanging the buffer solution and allowing the artery to return to its stable baseline level.
To evaluate the effect of selective α2-AR antagonists on vasoconstriction, concentration-effect curves to UK 14,304 were determined under control conditions and in the presence of the selective α2A-AR antagonist, BRL 44408 (100 and 1000 nM), the selective α2B-AR antagonist ARC 0239 (50 nM) or the selective α2C-AR antagonist MK 912 (0.3 nM) (Table 1). When these receptor antagonists were used, the preparations were incubated for 30 min with the drugs prior to, and also during, exposure of the arteries to the agonists. When analyzing the influence of cold on α-AR responsiveness, the temperature of the superfusate was decreased to 28° C. for 30 min prior to commencing a concentration effect curve to the constrictor agonists. This provides sufficient time for the effect of cold on adrenergic reactivity to stabilize.
Vasomotor responses were expressed as a percentage change in internal diameter (ID) prior to administrating the agent. Because of the phasic behavior of the vasomotion in distal. tail arteries, the signal was electronically averaged (BIOPAC software, smoothing factor of 2000) in order to obtain diameter measurements. Functional data is expressed as means±SEM for n number of experiments, where n equals the number of animals from which blood vessels were studied. Antagonist dissociation constants (KD) were determined either from Arunlakshana and Schild plots or according to the formula: KD=[Ant]/(CR-1), where [Ant] is the concentration of antagonist, and CR the ratio of agonist-concentrations producing equal responses in the presence and absence of the antagonist. […] Statistical evaluation of the data was performed by Student's t-test for either paired or unpaired observations. When more than two means were compared, analysis of variance was used. If a significant F value was found, Scheffe's test for multiple comparisons was employed to identify differences among groups. Values were considered to be statistically different when P was less than 0.05.

−log KD ([4]; 28° C. (cold), n=4): 10.9±0.17 | pKd ([4]; 28° C. (cold), n=4, read-out: KD): 10.85 | pKd ([4]; 28° C. (cold), versus UK 14,304, distal tail artery, read-out: KD Mouse Tail Artery 28° C.): < 10.85 | pKd ([4]; 37° C. (warm), versus UK 14,304, distal tail artery, read-out: KD Mouse Tail Artery 37° C.): < 9.52
SMILES: CN1CCC2(CCN3CCc4c(oc5ccccc45)C3C2)N(C)C1=O (stereo not drawn) [MK 912]
pKd [1]: 9.48 | Kb ([2]; SSc arteries): 0.00123 nM | Kb ([2]; control arteries): 0.468 nM | effect on vasoconstrictor response to α2-AR stimulation ([2]; SSc arteries, extremely low concentrations (e.g. 10^−11M)): reduced the vasoconstrictor response | concentration needed to inhibit responses to UK 14,304 ([2]; control arteries): 10^−9 M | concentration needed in control arteries relative to SSc arteries ([2]; control versus SSc arteries): 100 fold | pKd [3]: 10.35 | effect on cold-induced amplification of the α2-AR response ([4]; 28° C. versus 37° C., UK 14,304): selectively abolished | expected shift in concentration-effect curves generated by α2C-AR stimulation ([4]; based on the Table 1 KD, antagonist at 0.3 nM): ~6 fold | effect on vasoconstrictor response to UK 14,304 ([4]; cold (28° C.), BRL 44408 100 and 1000 nM, ARC 0239 50 nM, MK912 3×10^−10M): dramatically inhibited | effect on vasoconstriction to the α2-AR agonist UK 14,304 ([4]; warm temperatures (37° C.), BRL 44408 100 and 1000 nM, ARC 239 50 nM, MK 912 0.3 nM): not inhibited
